Values quoted from earlier work as cited in patent US20130090296A1, “INJECTABLE FORMULATION OF A MACROCYCLIC LACTONE AND LEVAMISOLE” (priority 2010, published 2013).

Details: previously found

c1ccc([C@H]2CN3CCSC3=N2)cc1 [levamisole]
pH required for stability: less than 4
